Data set [1] deals with C57BL/6 mice. Put plainly: Delayed type hypersensitivity, contact sensitivity to oxazolone (ear swelling). It counts as in vivo, mouse. Conditions: WT mice, reagent at second exposure to oxazolone; for ear swelling: ear thickness 24 hours later. As for the experimental part:
C57BL/6 mice were topically sensitised with oxazolone on the shaved abdomen on day 0. Treatment with either saline, PTL060 (10 mg/g), equimolar PTL0GC-1 or equimolar *3-MP was given on day 3 and day 5, the last immediately prior to re-challenge with oxazolone onto the right ear. The left ear was treated with vehicle alone. On day 6, the difference in swelling of the right and left ears was measured and is presented as D mean ear thickness.
This example uses a model of contact hypersensitivity. Here, mice are challenged on the abdomen with the contact sensitizer oxazolone, before a re-challenge […] on both sides of the ear with oxazolone (on the right) or vehicle alone (on the left).
Swelling of the ears, measured with a micrometer, reflects the influx of monocytes/macrophages and T cells in a typical delayed-type hypersensitivity (DTH) response.
FIG. 19: Model of DTH involving contact sensitivity to oxazolone. WT mice were administered a PAR-1 agonist or antagonist at the point of second exposure to oxazolone, before ear thickness was assessed 24 hours later, and mice sacrificed for immunohistological analysis of cross sections of the affected ears, to determine the proportional area occupied by CD68+ cells (macrophages). *p<0.05. **p<0.01. ***p<0.001

In data set [2] the test system is murine SMC. Briefly: Thrombin-induced secretion of chemokines by SMC with PAR reagents. It counts as cell-based, mouse. As to conditions: for thrombin-mediated CX3CL1 secretion / thrombin-mediated MIF (and CCL-2) secretion: SMC, 12 hour; for thrombin-induced secretion of CX3CL1 and CCL5 reduced by: murine SMC, 10 μM, thrombin 10 nM. More on the design: thrombin-mediated MIF (and CCL-2) secretion / thrombin-mediated CX3CL1 secretion: dose or concentration left out as unconfirmed. As for the experimental part:
In more detail, Mechanistic insights—monocyte recruitment: In vitro secretion of chemokines by PAR-1 and PAR-2 agonists. Mouse primary smooth muscle cells (SMCs) or endothelial cells (EC) at a density of 1×10^6 cells/well of a 24-well plate were serum-starved for 24 hours before addition of FLLRN (PAR-1 […], 10 μM), 2-Furoyl-LIGRLO-Amide (PAR-2 agonist, 10 μM) or 3-MP (3-mercaptopropionyl-F-Cha-Cha-RKPNDK 10 μM) for 12 hours, […] , before a final 48 hours incubation in 2% FCS DMEM. Supernatants of stimulated cells were collected to measure MIF, CCL2, CCL5 and CX3CL1 using ELISA, following manufacturer's protocol.
In more detail, mechanistic insights—monocyte recruitment: In vitro secretion of chemokines by thrombin—differential impact of PAR-1 antagonist and 3-mercaptopropionyl-F-Cha-Cha-RKPNDK. Secretion of chemokines from murine SMC after stimulation with thrombin alone (nil), or in presence of a pure PAR-1 antagonist, or 3-MP*.
(§1) FIG. 22: Secretion of MIF and CX3CL1 by SMC after 12 hour stimulation with either a pure PAR-1 agonist, pure PAR-2 agonist, or by 3-mercaptoproprionyl(MP)—F-Cha-Cha-RKPNDK amide, followed by 48 hour culture period. All used at […]. Patterns of secretion of CCL-2 resemble those of MIF, whereas secretion of CCL5 resembles CX3CL1.
Chemokines measured 48 hours later. Secretion of CCL-2 resembles that of MIF, whereas secretion of CCL5 resembles CX3CL1.

Data set [3] has as its system macrophages. Briefly: Sensitivity of macrophages to IFNγ (iNOS expression, flow cytometry). The class given is cell-based. Conditions: 100 microM; for enhanced sensitivity of macrophages to IFNγ induced by thrombin (iNOS): thrombin 50 iu. Here is the method:
In more detail, mechanistic insights: direct effect on monocyte/macrophage phenotype. Sensitivity of macrophages to IFNγ, as assessed by the proportion that express iNOS after stimulation.
The enhanced sensitivity to IFNγ induced by thrombin is inhibited by a PAR-1 antagonist—this is via expression of ABCA1 and membrane lipid rafts. […] BMM purified cells cultured in MCSF for 5 days. Cells then removed for 24 hours and incubated with thrombin (50 units) (if an antagonist or 3-mercaptopropionyl-F-Cha-Cha-RKPNDK was used cells were incubated for 2 hours with the antagonist or 3MP prior to thrombin stimulation to allow time for antagonist to dock with PAR). Cells then had media replaced with thrombin+ PAR reagent and IFN gamma at the dose described. For the PAR2 experiments it was at this point that PAR2 was added. Cells were then incubated for 24 further hours and then analysed by flow cytometry for iNOS. Pure PAR-1 antagonist (αagonist)=FLLRN; Pure PAR-2 agonist=2-Furoyl-LIGRLO-amide; 3-MP=3-mercaptopropionyl-F-Cha-Cha-RKPNDK; All used at 100 microM. Thrombin used at 50 iu
For orientation: Flow cytometry measures light scatter and fluorescence of single cells or particles in a stream.

Data set [4] has as its target T1, protease activated receptor 1 (PAR-1) (UniProt P30558).
T1 sequence: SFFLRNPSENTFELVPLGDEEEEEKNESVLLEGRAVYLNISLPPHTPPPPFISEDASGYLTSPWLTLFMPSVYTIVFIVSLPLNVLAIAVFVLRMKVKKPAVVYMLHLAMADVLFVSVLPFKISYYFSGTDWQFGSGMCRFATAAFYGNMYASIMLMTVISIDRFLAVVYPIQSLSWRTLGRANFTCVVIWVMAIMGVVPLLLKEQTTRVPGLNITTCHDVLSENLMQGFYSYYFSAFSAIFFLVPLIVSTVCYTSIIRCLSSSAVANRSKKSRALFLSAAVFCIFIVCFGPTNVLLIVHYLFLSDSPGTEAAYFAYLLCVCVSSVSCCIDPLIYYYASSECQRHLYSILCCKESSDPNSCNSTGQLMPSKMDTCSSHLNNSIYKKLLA

The test system of data set [5] is SOCS3. Put plainly: SOCS3 expression of macrophages. The class given is cell-based. An excerpt:
This is a well-described inhibitor of IFNγ signalling. In the right graph, the thrombin-induced sensitivity to IFNγ, as assessed by change in iNOS expression, is shown.

The target in data set [6] is T2, PAR2 (Homo sapiens, UniProt P55085).
T2 sequence (P55085 26-397): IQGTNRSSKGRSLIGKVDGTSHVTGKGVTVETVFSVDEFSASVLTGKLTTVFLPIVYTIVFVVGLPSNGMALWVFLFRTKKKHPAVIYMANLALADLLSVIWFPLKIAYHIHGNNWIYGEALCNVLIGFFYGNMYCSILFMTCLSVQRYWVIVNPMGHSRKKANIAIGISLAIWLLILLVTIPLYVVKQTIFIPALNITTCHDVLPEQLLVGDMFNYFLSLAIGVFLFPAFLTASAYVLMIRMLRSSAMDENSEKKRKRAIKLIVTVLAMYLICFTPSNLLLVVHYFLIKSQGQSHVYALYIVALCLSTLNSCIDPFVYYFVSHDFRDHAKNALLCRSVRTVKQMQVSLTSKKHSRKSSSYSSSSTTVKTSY
As to conditions: Kawabata et al 1999, page 365; cited from earlier work.

For data set [7], the target named is T3, PAR1 (Homo sapiens, UniProt P25116).
T3 sequence (P25116 22-425): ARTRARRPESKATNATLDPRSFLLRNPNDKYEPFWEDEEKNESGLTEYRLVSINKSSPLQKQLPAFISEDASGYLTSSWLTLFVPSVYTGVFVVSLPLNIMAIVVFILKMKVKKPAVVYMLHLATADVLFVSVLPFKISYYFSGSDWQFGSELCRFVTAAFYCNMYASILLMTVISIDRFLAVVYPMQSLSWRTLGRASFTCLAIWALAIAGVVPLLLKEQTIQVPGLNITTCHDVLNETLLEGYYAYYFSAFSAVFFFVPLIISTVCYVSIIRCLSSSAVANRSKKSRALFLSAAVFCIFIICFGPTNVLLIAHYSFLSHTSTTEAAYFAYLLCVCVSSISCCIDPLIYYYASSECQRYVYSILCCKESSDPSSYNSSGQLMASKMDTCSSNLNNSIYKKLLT
Conditions: Kawabata et al 1999, page 365; cited from earlier work.

In data set [8] the test system is Mouse primary smooth muscle cells (SMCs) or endothelial cells (EC). Briefly: In vitro secretion of chemokines by SMC/EC after PAR reagents. The class given is cell-based. Conditions: for secretion of CX3CL1 (and CCL5) compared with a PAR-1 agonist / secretion of MIF (and CCL-2) compared with PAR-1 agonists: SMC, 12 hour stimulation, 48 hour culture. Set-up: secretion of MIF (and CCL-2) compared with PAR-1 agonists / secretion of CX3CL1 (and CCL5) compared with a PAR-1 agonist: dose or concentration left out as unconfirmed. As for the experimental part:
In more detail, Mechanistic insights—monocyte recruitment: In vitro secretion of chemokines by PAR-1 and PAR-2 agonists. Mouse primary smooth muscle cells (SMCs) or endothelial cells (EC) at a density of 1×10^6 cells/well of a 24-well plate were serum-starved for 24 hours before addition of FLLRN (PAR-1 […], 10 μM), 2-Furoyl-LIGRLO-Amide (PAR-2 agonist, 10 μM) or 3-MP (3-mercaptopropionyl-F-Cha-Cha-RKPNDK 10 μM) for 12 hours, following which thrombin (10 nM) was added for 1 hour, before a final 48 hours incubation in 2% FCS DMEM. Supernatants of stimulated cells were collected to measure MIF, CCL2, CCL5 and CX3CL1 using ELISA, following manufacturer's protocol.
as §1

The test system of data set [9] is C57BL/6 mice. Briefly: Delayed type hypersensitivity, contact sensitivity to oxazolone (ear swelling). It counts as in vivo, mouse. Conditions: 10 microM/g.
Data set [10] relates to ABCA1. Put plainly: ABCA1 expression of macrophages incubated with thrombin. The class given is cell-based. As to conditions: titrated in during incubation of macrophages with thrombin. The text has this:
In more detail, mechanistic insights: direct effect on monocyte/macrophage phenotype through SOCS3. To explain how 3-MP inhibits the enhanced sensitivity to IFNγ induced by thrombin.

In data set [11] the test system is ApoE−/− mice. Conditions: 30-week-old animals; cited from earlier work.

This is an account of results in patent US20230167155A1, “COMPOSITIONS AND METHODS” (KING'S COLLEGE LONDON, priority 2020, published 2023).

“Also recorded” adds a separate entry of the source. [ ]: non-standard residue; d: D form. The star is where a group is joined. Cha = N[C@@H](CC1CCCCC1)C(=O)O; Orn = NCCC[C@H](N)C(=O)O; 2Furoyl = O=C(c1ccco1)*; Mpa = O=C(O)CCS

Take FLLRN [PAR-1 antagonist]: the “ear swelling” value in data set [1] is “inhibited”. Further, in data set [2], the “thrombin-mediated CX3CL1 secretion” value was “inhibited”; the “thrombin-mediated MIF (and CCL-2) secretion” value is listed as “inhibited equally”; the “thrombin-induced secretion of CX3CL1 and CCL5 reduced by” value was determined as 50%. Further, in data set [3], the “enhanced sensitivity of macrophages to IFNγ induced by thrombin (iNOS)” value (shortened to “enhanced sensitivity of macrophages”) was “inhibited”.
“FSLLRY-NH2 trifluoroacetate salt [PAR-2 antagonist]”: the “ear swelling” value in data set [1] is “exacerbates”.
For the compound thrombin, in data set [4], the “MIF and CCL2 production by cultured mouse SMCs after stimulation by thrombin (ELISA)” value is reported as “thrombin-mediated chemokine expression was primarily via PAR-1”.
Regarding “3-mercaptopropionyl-Phe-Cha-Cha-Arg-Lys-Pro-Asn-Asp-Lys-NH2 ([Mpa]F[Cha][Cha]RKPNDK-NH2; SMILES N=C(N)NCCC[C@H](NC(=O)[C@H](CC1CCCCC1)NC(=O)[C@H](CC1CCCCC1)NC(=O)[C@H](Cc1ccccc1)NC(=O)CCS)C(=O)N[C@@H](CCCCN)C(=O)N1CCC[C@H]1C(=O)N[C@@H](CC(N)=O)C(=O)N[C@@H](CC(=O)O)C(=O)N[C@@H](CCCCN)C(N)=O) [3-MP, parental untailed compound of PTL032 and PTL0GC-1]”, in [5], the “SOCS3 expression” value is “induces SOCS3 expression”. In data set [1], the “infiltration by CD68+ cells compared with both reagents together” value is on record as “inhibits CD68 infiltration better than when both reagents are administered together”; the “ear swelling” value was “inhibits ear swelling and infiltration by CD68+ cells better than when either a pure PAR-1 antagonist or PAR-2 agonist are administered separately”. Further, in data set [6], the “activity at PAR2” value is on record as “agonist”. In addition, in data set [2], the “thrombin-mediated CX3CL1 secretion” value is on record as “maintained”; the “thrombin-mediated MIF (and CCL-2) secretion” value was “inhibited equally”; the “thrombin-induced secretion of CX3CL1 and CCL5 reduced by” value is reported as 0-10%. Further, in [7], the “activity at PAR1” value was “antagonist”. Moreover, the “behaviour in chemokine secretion assay” value in data set [8] (10 μM, 12 hours, MIF, CCL2, CCL5, CX3CL1 by ELISA) is “behaves as a pure PAR-2 agonist”. In data set [8], the “secretion of CX3CL1 (and CCL5) compared with a PAR-1 agonist” value is “stimulated better” and the “secretion of MIF (and CCL-2) compared with PAR-1 agonists” value is on record as “less so”. For the same compound, in [9], the “monocyte recruitment and phenotype in DTH” value is recorded as “reduced monocyte recruitment with switched phenotype”. Also, in data set [3], the “background response of control macrophages to IFNγ” value is “inhibits the background response of control macrophages to IFNγ” and the “enhanced sensitivity of macrophages” value was “more potent than a pure PAR-1 antagonist”. Moreover, the “thrombin-induced ABCA1 expression” value in data set [10] is “inhibits thrombin-induced ABCA1 expression”.
“2-Furoyl-LIGRLO-amide (2Furoyl-LIGRL[Orn]-NH2) [PAR-2 agonist]”: in [5], the “SOCS3 expression” value was “induces SOCS3 expression”. For the same compound, the “ear swelling” value in [1] was “inhibits”. For the same compound, in data set [8], the “secretion of CX3CL1 (and CCL5) compared with a PAR-1 agonist” value is “stimulated better” and the “secretion of MIF (and CCL-2) compared with PAR-1 agonists” value is “less so”. Besides, the “enhanced sensitivity of macrophages” value in [3] is on record as “reduces the sensitivity of macrophages to IFNγ induced by thrombin; also recorded: dampens the enhanced sensitivity”.
Consider `N=C(N)c1ccc(CNC(=O)[C@@H]2CCN2C(=O)[C@H](NCC(=O)O)C2CCCCC2)cc1` [Megalatran], for which the “burden of advanced atheromatous lesions” value in data set [11] was “reduced burden of advanced atheromatous lesions”.
